Results from patent US20240287052A1, “NOVEL OXAZOLE DERIVATIVE AND PHARMACEUTICAL COMPOSITION FOR PREVENTING OR TREATING ALLERGIC DISEASES COMPRISING THE SAME” (AZCURIS CO., LTD., priority 2021, published 2024).
Like-named read-outs stand apart in the source and are kept apart here.

Target: T1, IL33 and ST2 binding (Homo sapiens, UniProt O95760)
T1 sequence (O95760 112-270 limits assumed): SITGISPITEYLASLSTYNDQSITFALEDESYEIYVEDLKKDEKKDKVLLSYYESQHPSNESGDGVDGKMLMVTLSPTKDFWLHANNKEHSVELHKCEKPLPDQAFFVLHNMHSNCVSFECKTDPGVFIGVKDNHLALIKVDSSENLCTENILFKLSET
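Also: plate ELISA with coated Flag-tagged human IL-33 and His-tagged human ST2, bound ST2 detected by anti-His HRP and TMB absorbance at 450 nm, 2 h compound incubation.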

Row | SMILES | inhibition (30 µM) [%] | inhibition (100 µM) [%]
1 | COCCNC(=O)c1nc(-c2ccc(C(F)(F)F)cc2)oc1-c1ccccc1[N+](=O)[O-] [Compound 160, N-(2-Methoxyethyl)-5-(2-nitrophenyl)-2-(4-(trifluoromethyl)phenyl)oxazole-4-carboxamide] | 18 | 29
2 | CN1CCN(CCNC(=O)c2nc(-c3cccc(Cl)c3)oc2-c2ccccc2)CC1 [Compound 241, 2-(3-Chlorophenyl)-N-(2-(4-methylpiperazin-1-yl)ethyl)-5-phenyloxazole-4-carboxamide] | 31 | 38
3 | O=C(NCc1ccccc1)c1nc(-c2ccc(C(F)(F)F)cc2)oc1-c1ccccc1[N+](=O)[O-] [Compound 164, N-Benzyl-5-(2-nitrophenyl)-2-(4-(trifluoromethyl)phenyl)oxazole-4-carboxamide] | 9 | 4
4 | CN(C)CCNC(=O)c1nc(-c2ccc3ccccc3c2)oc1-c1ccccc1[N+](=O)[O-] [Compound 259, N-(2-(Dimethylamino)ethyl)-2-(naphthalen-2-yl)-5-(2-nitrophenyl)oxazole-4-carboxamide] | 6 | 1
5 | O=C(c1nc(-c2ccc(C(F)(F)F)cc2)oc1-c1ccccc1[N+](=O)[O-])N1CCC(O)CC1 [Compound 161, (4-Hydroxypiperidin-1-yl)(5-(2-nitrophenyl)-2-(4-(trifluoromethyl)phenyl)oxazol-4-yl)methanone] | -16 | -11
6 | CCOC(=O)c1nc(-c2cccc(C(F)(F)F)c2)oc1-c1ccccc1 [Compound 29, Ethyl 5-phenyl-2-(3-(trifluoromethyl)phenyl)oxazole-4-carboxylate] | 19 | 33
7 | COc1ccc(-c2nc(C(=O)N3CCN(CCN(C)C)CC3)c(-c3ccccc3[N+](=O)[O-])o2)cc1 [Compound 216, (4-(2-(Dimethylamino)ethyl)piperazin-1-yl)(2-(4-methoxyphenyl)-5-(2-nitrophenyl)oxazol-4-yl)methanone] | 46 | 84
8 | CN1CCN(CCNC(=O)c2nc(-c3ccc(Cl)cc3)oc2-c2ccccc2)CC1 [Compound 245, 2-(4-Chlorophenyl)-N-(2-(4-methylpiperazin-1-yl)ethyl)-5-phenyloxazole-4-carboxamide] | 15 | 26
9 | CCOC(=O)c1nc(-c2ccc(C(F)(F)F)cc2)oc1-c1ccc(N(C(C)=O)C(C)=O)cc1 [Compound 109, Ethyl 5-(4-(N-acetylacetamido)phenyl)-2-(4-(trifluoromethyl)phenyl)oxazole-4-carboxylate] | 19 | -2
10 | CSc1ccc(-c2nc(C(=O)NCCN(C)C)c(-c3ccccc3[N+](=O)[O-])o2)cc1 [Compound 273, N-(2-(Dimethylamino)ethyl)-2-(4-(methylthio)phenyl)-5-(2-nitrophenyl)oxazole-4-carboxamide] | -25 | -18
11 | CCOC(=O)c1nc(-c2ccc3ccccc3c2)oc1-c1ccccc1 [Compound 83, Ethyl 2-(naphthalen-2-yl)-5-phenyloxazole-4-carboxylate] | 22 | 42
12 | CN1CCN(CCNC(=O)c2nc(-c3ccc(OC(F)(F)F)cc3)oc2-c2ccccc2)CC1 [Compound 204, N-(2-(4-Methylpiperazin-1-yl)ethyl)-5-phenyl-2-(4-(trifluoromethoxy)phenyl)oxazole-4-carboxamide] | 1 | 36
13 | CN1CCN(CCNC(=O)c2nc(-c3ccc(C(F)(F)F)cc3)oc2-c2ccccc2)CC1 [Compound 127, N-(2-(4-Methylpiperazin-1-yl)ethyl)-5-phenyl-2-(4-(trifluoromethyl)phenyl)oxazole-4-carboxamide] | -24 | -5
14 | CCOC(=O)c1nc(-c2ccc(F)cc2)oc1-c1ccccc1 [Compound 67, Ethyl 2-(4-fluorophenyl)-5-phenyloxazole-4-carboxylate] | 9 | 15
15 | CN1CCN(CCNC(=O)c2nc(-c3cccc(C(F)(F)F)c3)oc2-c2ccccc2)CC1 [Compound 122, N-(2-(4-Methylpiperazin-1-yl)ethyl)-5-phenyl-2-(3-(trifluoromethyl)phenyl)oxazole-4-carboxamide] | -18 | 0
16 | CCOC(=O)c1nc(-c2ccccc2C(F)(F)F)oc1-c1ccccc1 [Compound 27, Ethyl 5-phenyl-2-(2-(trifluoromethyl)phenyl)oxazole-4-carboxylate] | 34 | 84
17 | CN1CCN(CCNC(=O)c2nc(-c3cccc(OC(F)(F)F)c3)oc2-c2ccccc2)CC1 [Compound 200, N-(2-(4-Methylpiperazin-1-yl)ethyl)-5-phenyl-2-(3-(trifluoromethoxy)phenyl)oxazole-4-carboxamide] | 5 | 0
18 | CS(=O)(=O)N1CCN(CCNC(=O)c2nc(-c3ccc(C(F)(F)F)cc3)oc2-c2ccccc2[N+](=O)[O-])CC1 [Compound 287, N-(2-(4-(methylsulfonyl)piperazin-1-yl)ethyl)-5-(2-nitrophenyl)-2-(4-(trifluoromethyl)phenyl)oxazole-4-carboxamide] | 41 | 46
19 | O=C(c1nc(-c2ccc(C(F)(F)F)cc2)oc1-c1ccccc1[N+](=O)[O-])N1CCCCC1 [Compound 144, (5-(2-Nitrophenyl)-2-(4-(trifluoromethyl)phenyl)oxazol-4-yl)(piperidin-1-yl)methanone] | -19 | -34
20 | CCOC(=O)c1nc(-c2ccc(C(C)(C)C)cc2)oc1-c1ccc(NC(C)=O)cc1 [Compound 111, Ethyl 5-(4-acetamidophenyl)-2-(4-(tert-butyl)phenyl)oxazole-4-carboxylate] | 10 | 12
21 | CCOC(=O)c1nc(-c2ccc(OC)cc2)oc1-c1ccccc1[N+](=O)[O-] [Compound 63, Ethyl 2-(4-methoxyphenyl)-5-(2-nitrophenyl)oxazole-4-carboxylate] | 26 | 57
22 | CN1CCN(CCNC(=O)c2nc(-c3ccc(-c4ccccc4)cc3)oc2-c2ccccc2)CC1 [Compound 254, 2-([1,1′-Biphenyl]-4-yl)-N-(2-(4-methylpiperazin-1-yl)ethyl)-5-phenyloxazole-4-carboxamide] | -20 | 11
23 | CN1CCN(CCNC(=O)c2coc(-c3ccc(C(F)(F)F)cc3)n2)CC1 [Compound 115, N-(2-(4-methylpiperazin-1-yl)ethyl)-2-(4-(trifluoromethyl)phenyl)oxazole-4-carboxamide] | -22 | -17
24 | CN1CCN(CCNC(=O)c2nc(-c3cc(F)cc(F)c3)oc2-c2ccccc2)CC1 [Compound 236, 2-(3,5-Difluorophenyl)-N-(2-(4-methylpiperazin-1-yl)ethyl)-5-phenyloxazole-4-carboxamide] | -8 | -7
25 | CCOC(=O)c1nc(-c2cc(F)cc(F)c2)oc1-c1ccccc1 [Compound 73, Ethyl 2-(3,5-difluorophenyl)-5-phenyloxazole-4-carboxylate] | 12 | 22
